Assay results from ChEMBL document CHEMBL4842387, “Discovery of a Series of Hydroxamic Acid-Based Microtubule Destabilizing Agents with Potent Antitumor Activity” (J Med Chem, 2021).

Test: Metabolic stability in human liver microsomes at 1 uM in presence of NADPH regenerating system measured up to 60 mins by UFLC-MS/MS analysis
Format: ADME, Microsome
Conditions: 1 h

COc1ccc(N(C)c2nc(C)nc3ccccc23)cc1OCC(=O)NO
Stabilty: Unstable
